Measurements as given in patent publication US20080200539A1, “Topical antifungal treatment” (priority 2002, published 2008).

Columns and labels:
[1] = Topical vitamin A on surgical incision area in post surgical patients; format: in vivo; details: 50,000 international units applied topically
From the text: Vitamin A is a fat soluble vitamin that is used in a wide dosage range from 5 to 50,000 I.U. to assist in healing. […] Vitamin A is also important for nutritional support. Vitamin D is also a fat soluble vitamin utilized in nutritional support. Vitamin D is not recommended in doses of over 6000 International Units per day. Topical applications with vitamin A and D have been used for years to enhance healing and repair damaged skin.

[2] = pH of triacetin when applied to the skin; format: physicochemical
From the text: Triacetin also acts to decrease the pH of the application area It is known that fungus like moist areas and thrive in environments with a normal acidity, pH 6.5 to 7.2. Yeasts die in low pH environments, i.e. pH levels in the range of 4.5 or less, and infectious fungi are adversely affected in low pH environments. Triacetin has a pH of 4.0 when applied to the skin, and effectively lowers the pH of the application area. As triacetin breaks down after application, it produces acetic acid, a weak antifungal agent. Triacetin also acts to lower the moisture content in the application area, which aids in creating an adverse environment for fungal growth. In high concentrations, such as in this preparation, triacetin reduces the secretion of moisture during perspiration, due to an astringent effect, or antihyperhydrosis effect. Triacetin also acts to reduce moisture by bonding with the moisture available in the affected area, reducing the opportunity or availability of the moisture to be utilized by the fungal cells. After application, triacetin also coats the application area, saturating the epidermis and limiting moisture available for fungal growth. Finally, triacetin can also be used for nutritional support whether administered orally, topically or intravenously, to restore healthy, normal skin as is seen with the topical administration of this preparation.

[3] = system: superficial fungal infections of the skin; details: used alone; previous clinical studies by others; cited from earlier work
Microsporum gypseum = details: cited from earlier work
Microsporum canis = details: cited from earlier work
Microsporum audouini = details: cited from earlier work
Microsporum japonicum = details: cited from earlier work
Trichophyton rubrum = details: cited from earlier work
[4] = system: Trichophyton mentagrophytes; details: cited from earlier work
[5] = system: Trichophyton schoenleinii; details: cited from earlier work
Trichophyton tonsurans = details: cited from earlier work
Epidermophytom flocossum = details: cited from earlier work
Aspergillis niger = details: cited from earlier work
[6] = system: nails infected by dermatophytes; details: cited from earlier work

Compound: Vitamin A
- healing time [1]: improved healing time

Compound: CC(=O)OCC(COC(C)=O)OC(C)=O [Triacetin]
- pH [2]: 4.0
- effectiveness as an antifungal agent [3]: only mildly effective

Compound: Cc1cccc(N(C)C(=S)Oc2ccc3ccccc3c2)c1 [tolnaftate]
- in vitro activity (Microsporum gypseum): fungistatic or fungicidal
- in vitro activity (Microsporum canis): fungistatic or fungicidal
- in vitro activity (Microsporum audouini): fungistatic or fungicidal
- in vitro activity (Microsporum japonicum): fungistatic or fungicidal
- in vitro activity (Trichophyton rubrum): fungistatic or fungicidal
- in vitro activity [4]: fungistatic or fungicidal
- in vitro activity [5]: fungistatic or fungicidal
- in vitro activity (Trichophyton tonsurans): fungistatic or fungicidal
- in vitro activity (Epidermophytom flocossum): fungistatic or fungicidal
- activity against Aspergillis niger (Aspergillis niger): varies from one strain to another

Compound: CN(C/C=C/C#CC(C)(C)C)Cc1cccc2ccccc12 [terbinafine]
- duration of continuous daily intake needed to show some efficacy [6]: three months or more
